Results reported in patent US4902699A, “Oxime of 1, 2, 5, 6-tetrahydropyridine compounds their use as medicaments and the compositions containing them” (Roussel Uclaf, priority 1987, dated 1990).
Where a name gives a salt, the structure may show the parent alone. Read-outs that look alike come from different tables or passages of the source.

Key:
[1] = system: male mice (CD1 Charles RAivers); assay: Hypothermic activity; format: in vivo; conditions: Mus musculus, read-out: Effective dose (-1° C.)
Protocol: (§1) The test is carried out on male mice (CD1 Charles RAivers) weighing 25-30 g, having fasted for 6 hours.
The temperature of the body is noted by means of a thermocouple inserted about 1.5 cm in the rectum and connected to an electric temperature recorder.
The products are administered by oral or sub-cutaneous route and the temperatures are noted at the instant 0 and at 30 minutes, 1 hour, 2 hours and 2 and a half hours after treatment.
The degree of hypothermia is evaluated as the difference between the treated animals and the controls, and the dose necessary to reduce the body temperature by 1° C. is noted.

[2] = system: male mice (CD1 Charles RAivers); assay: Variation of the body temperature (duration of action); format: in vivo
Protocol: as §1
The temperature of the body is noted by means of a thermocouple inserted about 1.5 cm in the rectum and connected to an electric temperature recorder. […]
The duration of action of the products is determined, using the doses able to reduce the temperature by 1° to 1.5° C.

[3] = Acute toxicity, oral; set-up: species or system mice; conditions: mouse, in vivo, mortality during 7 days
Protocol: The test was carried out on male mice (CD1 Charles Rivers), of 22 to 24 g, having fasted for 16 hours. […] The mortality is noted during the 7 days following the treatment.

[4] = system: ileum isolated from guinea-pig; assay: Test of ileum isolated from guinea-pig, agonist (contracting) activity; conditions: Cavia porcellus; negative logarithm of the dose which produces 50% of the maximum effect; read-out: pD2 (converted)
Protocol: Pieces of ileum are removed from guinea-pigs killed by decapitation. The isolated ileum is placed in 10 cm^3 of Tyrode solution at 37° C. and aerated with a mixture of oxygen (95%) and carbon dioxide gas (5%). The contractions due to the products are registered by means of a detector connected to a polygraph. The products to be tested are added at concentrations between 1.10^-3 M and 1.10^-8 M/l.
The products presenting a contracting effect are tested vis-a-vis atropine and hexamethonium in order to establish if the activity is of "muscarine" or "nicotine" type.
The agonist activity is expressed in pD2 (negative logarithm of the dose which produces 50% of the maximum effect).

[5] = Diarrhoeic activity; set-up: species or system mice; conditions: mouse, in vivo; oral route; dose which causes diarrhoea in 50% of the animals; read-out: DE50 (the source's name)
Protocol: The test is carried out on male mice (CD1 Charles Rivers) weighing […], after fasting for 6 hours. The product dissolved at 5% in methocel is administered by oral route by means of an oesophage probe.
Control animals receive only the excipient.
After treatment, the animals are placed separately in cages of which the base is covered with blotting paper, and they are put under observation for 30, 60, 120 and 180 minutes.
The sheets of absorbent paper are changed after each observation.
The consistency of the feces is evaluated according to the method of Randall and Baruth (Arch. Int. Pharmacodyn. 220, 94, 1976) according to the following scale of values.
1: feces slightly soft, with or without a damp halo
2: feces slightly soft, with a well defined circle of humidity.
3: feces soft with a large circle of humidity.
4: feces without consistency with a very large circle of humidity.
For each product, the dose is noted which causes diarrhoea in 50% of the animals according to the method of Miller and Tainter (Proc. Soc. Exp. Biol. Med., 57, 261, 1944).

[6] = Solubility; format: physicochemical

## COC(=O)C1=CCCN(C)C1 [Arecoline HBr, reference compound]
[1]; O.R. (oral route)
  ED (-1 C): 194 mg/kg
[1]; SC.R (sub-cutaneous route)
  ED (-1 C): 3 mg/kg
[2]; os, 200 mg/kg, 30 min
  Variations of the body temperature: -1.1 °C
[2]; os, 200 mg/kg, 60 min
  Variations of the body temperature: -1.0 °C
[2]; os, 200 mg/kg, 120 min
  Variations of the body temperature: -0.2 °C
[2]; os, 200 mg/kg, 180 min
  Variations of the body temperature: -0.1 °C
[2]; sc, 3.5 mg/kg, 30 min
  Variations of the body temperature: -1.5 °C
[2]; sc, 3.5 mg/kg, 60 min
  Variations of the body temperature: -0.1 °C
[2]; sc, 3.5 mg/kg, 120 min
  Variations of the body temperature: +0.2 °C
[2]; sc, 3.5 mg/kg, 180 min
  Variations of the body temperature: +0.2 °C

## CON=CC1=CCCN(O)C1 [Example 1, Hydrochloride of the methyl ether of 1-hydroxy-1,2,5,6-tetrahydropyridin-3-carboxaldehyde oxime]
[3]
  LD50 at 168 h: 60 mg/kg
[4]
  EC50: 4.17 µM
[5]
  ED50: 0.5 mg/kg
[1]; O.R. (oral route)
  ED (-1 C): 0.19 mg/kg
[1]; SC.R (sub-cutaneous route)
  ED (-1 C): 0.2 mg/kg
[2]; os, 0.25 mg/kg, 30 min
  Variations of the body temperature: -1.4 °C
[2]; os, 0.25 mg/kg, 60 min
  Variations of the body temperature: -1.2 °C
[2]; os, 0.25 mg/kg, 120 min
  Variations of the body temperature: -0.1 °C
[2]; os, 0.25 mg/kg, 180 min
  Variations of the body temperature: -0.1 °C
[2]; sc, 0.25 mg/kg, 30 min
  Variations of the body temperature: -1.4 °C
[2]; sc, 0.25 mg/kg, 60 min
  Variations of the body temperature: -1.1 °C
[2]; sc, 0.25 mg/kg, 120 min
  Variations of the body temperature: -0.1 °C
[2]; sc, 0.25 mg/kg, 180 min
  Variations of the body temperature: -0.1 °C

## CON=CC1=CCCN(OC)C1 [Example 2, Hydrochloride of the methyl ether of 1-methoxy-1,2,5,6-tetrahydropyridin-3-carboxaldehyde oxime]
[6]; 2N HCl
  Solubility in 2N HCl: Soluble
[6]; 2N NaOH
  Solubility in 2N NaOH: Soluble
[6]; H2O
  Solubility in water: Soluble

## CCOC(=O)ON1CCC=C(C=NOC)C1 [Example 6, Methyl ether of 1-ethoxy carbonyloxy-1,2,5,6-tetrahydropyridin-3-carboxaldehyde oxime]
[3]
  LD50 at 168 h: 125 mg/kg
[4]
  EC50: 11.5 µM
[5]
  ED50: 0.6 mg/kg
[1]; O.R. (oral route)
  ED (-1 C): 0.26 mg/kg
[1]; SC.R (sub-cutaneous route)
  ED (-1 C): 0.24 mg/kg
[2]; os, 0.35 mg/kg, 30 min
  Variations of the body temperature: -1.3 °C
[2]; os, 0.35 mg/kg, 60 min
  Variations of the body temperature: -1.1 °C
[2]; os, 0.35 mg/kg, 120 min
  Variations of the body temperature: -0.1 °C
[2]; sc, 0.35 mg/kg, 30 min
  Variations of the body temperature: -1.4 °C
[2]; sc, 0.35 mg/kg, 60 min
  Variations of the body temperature: -1.1 °C
[2]; sc, 0.35 mg/kg, 120 min
  Variations of the body temperature: -0.1 °C
[2]; sc, 0.35 mg/kg, 180 min
  Variations of the body temperature: +0.1 °C

## CON=CC1=CCCN(OC(=O)c2ccccc2)C1 [Example 7, Methyl ether of 1-benzoyloxy-1,2,5,6-tetrahydropyridin-3-carboxaldehyde oxime]
[3]
  LD50 at 168 h: 90 mg/kg
[4]
  EC50: > 100 µM
[5]
  ED50: 1.5 mg/kg
[1]; O.R. (oral route)
  ED (-1 C): 0.42 mg/kg
[1]; SC.R (sub-cutaneous route)
  ED (-1 C): 0.21 mg/kg
[2]; os, 0.5 mg/kg, 30 min
  Variations of the body temperature: -1.1 °C
[2]; os, 0.5 mg/kg, 60 min
  Variations of the body temperature: -0.9 °C
[2]; os, 0.5 mg/kg, 180 min
  Variations of the body temperature: +0.1 °C
[2]; sc, 0.25 mg/kg, 30 min
  Variations of the body temperature: -1.2 °C
[2]; sc, 0.25 mg/kg, 60 min
  Variations of the body temperature: -0.9 °C
[2]; sc, 0.25 mg/kg, 180 min
  Variations of the body temperature: +0.1 °C

## CCCNC(=O)ON1CCC=C(C=NOC)C1 [Example 10, Methyl ether of 1-propyl aminocarbonyloxy-1,2,5,6-tetrahydropyridin-3-carboxyaldehyde oxime]
[3]
  LD50 at 168 h: 125 mg/kg
[4]
  EC50: > 100 µM
[5]
  ED50: 20 mg/kg
[1]; O.R. (oral route)
  ED (-1 C): 1.4 mg/kg
[1]; SC.R (sub-cutaneous route)
  ED (-1 C): 1.3 mg/kg
[2]; os, 1.56 mg/kg, 30 min
  Variations of the body temperature: -1.2 °C
[2]; os, 1.56 mg/kg, 60 min
  Variations of the body temperature: -1.0 °C
[2]; os, 1.56 mg/kg, 120 min
  Variations of the body temperature: -0.1 °C
[2]; os, 1.56 mg/kg, 180 min
  Variations of the body temperature: +0.1 °C
[2]; sc, 1.56 mg/kg, 30 min
  Variations of the body temperature: -1.2 °C
[2]; sc, 1.56 mg/kg, 60 min
  Variations of the body temperature: -1.1 °C
[2]; sc, 1.56 mg/kg, 180 min
  Variations of the body temperature: +0.1 °C

## CON=CC1=CCCN(OC(=O)Nc2ccccc2)C1 [Example 13, Methyl ether of 1-phenylaminocarbonyloxy 1,2,5,6-tetrahydropyridin-3-carboxaldehyde oxime]
[3]
  LD50 at 168 h: 250 mg/kg
[4]
  EC50: > 100 µM
[5]
  ED50: 5 mg/kg
[1]; O.R. (oral route)
  ED (-1 C): 0.74 mg/kg
[1]; SC.R (sub-cutaneous route)
  ED (-1 C): 0.43 mg/kg
[2]; os, 1. mg/kg, 30 min
  Variations of the body temperature: -1.4 °C
[2]; os, 1. mg/kg, 60 min
  Variations of the body temperature: -1.1 °C
[2]; os, 1. mg/kg, 120 min
  Variations of the body temperature: -0.1 °C
[2]; os, 1. mg/kg, 180 min
  Variations of the body temperature: +0. °C.
[2]; sc, 0.5 mg/kg, 30 min
  Variations of the body temperature: -1.2 °C
[2]; sc, 0.5 mg/kg, 60 min
  Variations of the body temperature: -1.2 °C
[2]; sc, 0.5 mg/kg, 120 min
  Variations of the body temperature: -0.1 °C

## CON=CC1=CCCN(OC(=O)Nc2ccc(Cl)cc2)C1 [Example 14, Methyl ether of 1-(4-chlorophenylaminocarbonyloxy)-1,2,5,6-tetrahydropyridin-3-carboxaldehyde oxime]
[3]
  LD50 at 168 h: > 1000 mg/kg
[4]
  EC50: > 100 µM
[5]
  ED50: 10 mg/kg
[1]; O.R. (oral route)
  ED (-1 C): 1.8 mg/kg
[1]; SC.R (sub-cutaneous route)
  ED (-1 C): 1.8 mg/kg
[2]; os, 2.5 mg/kg, 30 min
  Variations of the body temperature: -1.3 °C
[2]; os, 2.5 mg/kg, 60 min
  Variations of the body temperature: -1.5 °C
[2]; os, 2.5 mg/kg, 120 min
  Variations of the body temperature: -0.3 °C
[2]; os, 2.5 mg/kg, 180 min
  Variations of the body temperature: +0.1 °C
[2]; sc, 2.5 mg/kg, 30 min
  Variations of the body temperature: -0.4 °C
[2]; sc, 2.5 mg/kg, 60 min
  Variations of the body temperature: -1.5 °C
[2]; sc, 2.5 mg/kg, 120 min
  Variations of the body temperature: -1.3 °C
[2]; sc, 2.5 mg/kg, 180 min
  Variations of the body temperature: -0.2 °C

## CON=CC1=CCCN(OC(=O)Nc2ccc(C(C)C)cc2)C1 [Example 15, Methyl ether of 1-(4-isopropylphenylaminocarbonyloxy) 1,2,5,6-tetrahydropyridin-3-carboxaldehyde oxime]
[3]
  LD50 at 168 h: 350 mg/kg
[4]
  EC50: > 100 µM
[5]
  ED50: 20 mg/kg
[1]; O.R. (oral route)
  ED (-1 C): 1.9 mg/kg
[1]; SC.R (sub-cutaneous route)
  ED (-1 C): 2.4 mg/kg
[2]; os, 2. mg/kg, 30 min
  Variations of the body temperature: -0.8 °C
[2]; os, 2. mg/kg, 60 min
  Variations of the body temperature: -1.0 °C
[2]; os, 2. mg/kg, 120 min
  Variations of the body temperature: +0. °C.
[2]; os, 2. mg/kg, 180 min
  Variations of the body temperature: +0.1 °C
[2]; sc, 4. mg/kg, 30 min
  Variations of the body temperature: -0.5 °C
[2]; sc, 4. mg/kg, 60 min
  Variations of the body temperature: -1.5 °C
[2]; sc, 4. mg/kg, 120 min
  Variations of the body temperature: -1.5 °C
[2]; sc, 4. mg/kg, 180 min
  Variations of the body temperature: -0.3 °C

## CON=CC1=CCCN(OC(=O)Nc2ccc(OC)cc2)C1 [Example 16, Methyl ether of 1-paramethoxyphenylaminocarbonyloxy-1,2,5,6-tetrahydropyridin-3-carboxaldehyde oxime]
[3]
  LD50 at 168 h: 60 mg/kg
[4]
  EC50: > 100 µM
[5]
  ED50: 6 mg/kg
[1]; O.R. (oral route)
  ED (-1 C): 0.88 mg/kg
[1]; SC.R (sub-cutaneous route)
  ED (-1 C): 0.78 mg/kg
[2]; os, 1. mg/kg, 30 min
  Variations of the body temperature: -1.1 °C
[2]; os, 1. mg/kg, 60 min
  Variations of the body temperature: -1.1 °C
[2]; os, 1. mg/kg, 120 min
  Variations of the body temperature: -0.1 °C
[2]; sc, 1. mg/kg, 30 min
  Variations of the body temperature: -1.2 °C
[2]; sc, 1. mg/kg, 60 min
  Variations of the body temperature: -1.5 °C
[2]; sc, 1. mg/kg, 120 min
  Variations of the body temperature: -0.3 °C
[2]; sc, 1. mg/kg, 180 min
  Variations of the body temperature: +0.1 °C
